Data taken from patent US8586602B2, “Derivatives of 7 alkynyl-1,8 naphthyridones, preparation method thereof and use of same in therapeutics” (Sanofi, priority 2007, dated 2013).
Values joined by “and” are separate entries in the source; they are usually repeats but may differ in a detail not shown here. Equal values may be shown once. Where a name gives a salt, the structure may show the parent alone.

What was measured:
VEGFR-3-TK = molecular target: T1, VEGFR-3-TK (Homo sapiens, UniProt P35916); assay: Measurement of the tyrosine kinase activity of VEGFR-3 by ELISA (phosphorylation of poly Glu-Tyr); type: biochemical; settings: VEGFR-3 ELISA, poly Glu-Tyr substrate, 30 μM ATP, 30 min at ambient temperature; read-out: IC50 (concentration which decreases the total activity of the enzyme by 50%)
T1 construct: purchased Cell Signaling 7790
T1 sequence (P35916 800-1297 limits assumed): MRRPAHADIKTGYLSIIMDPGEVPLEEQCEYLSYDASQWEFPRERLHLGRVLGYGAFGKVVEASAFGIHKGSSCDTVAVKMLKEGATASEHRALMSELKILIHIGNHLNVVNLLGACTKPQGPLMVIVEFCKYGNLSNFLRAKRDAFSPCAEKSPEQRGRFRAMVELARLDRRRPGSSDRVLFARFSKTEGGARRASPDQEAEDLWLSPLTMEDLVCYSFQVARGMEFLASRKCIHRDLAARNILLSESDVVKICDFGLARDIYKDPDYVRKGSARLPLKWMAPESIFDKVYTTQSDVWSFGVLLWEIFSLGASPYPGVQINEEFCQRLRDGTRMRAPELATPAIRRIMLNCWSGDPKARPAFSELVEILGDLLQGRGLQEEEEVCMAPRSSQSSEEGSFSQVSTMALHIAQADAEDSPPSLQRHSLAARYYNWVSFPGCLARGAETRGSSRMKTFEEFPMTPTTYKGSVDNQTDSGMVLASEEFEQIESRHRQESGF
Method: The compounds according to the invention have formed the subject of pharmacological assays which make it possible to determine their inhibitory effect on the VEGFR-3 enzyme.
Measurement of the Tyrosine Kinase Activity of VEGFR-3 by ELISA
The effect of the products is quantified by the concentration which decreases the total activity of the enzyme by 50% (IC50). For the determination of the IC50 values, the product is diluted in DMSO with a concentration range which extends from 3 to 1000 nM. The day before the manipulation, 125 μl of the poly Glu-Tyr substrate (250 μg/ml in 1×PBS without Ca^2+ or Mg^2+ or sodium bicarbonate) are deposited in each well of an ELISA plate (for example, an ELISA plate of the SIGMA Protein Tyrosine Kinase Assay kit, Ref. PTK-101). The plate is subsequently covered with an adhesive film and incubated overnight at 37° C. The following day, the wells are emptied by turning the plate over, washed by adding 300 μl of buffer solution (PBS+0.05% Tween 20) and dried by further incubation of the plate for 2 h at 37° C. A 90 μl reaction mixture is deposited onto each well. This mixture comprises the 1× kinase buffer to which 30 μM of ATP and the inhibitor at the desired concentration have been added. […]

Row | SMILES | melting point | IC50 (VEGFR-3-TK) [nM]
1 | CCn1c(N)c(C(=O)NC)c(=O)c2ccc(C#CC(C)(C)OCC(N)=O)nc21 [Compound 6, 2-Amino-7-[3-(2-amino-2-oxoethoxy)-3-methylbut-1-yn-1-yl]-1-ethyl-N-methyl-4-oxo-1,4-dihydro-1,8-naphthyridine-3-carboxamide] | 204 °C | 
2 | CCn1c(N)c(C(=O)NC)c(=O)c2ccc(C#CCOC)nc21 [Compound 5, 2-amino-1-ethyl-7-(3-methoxyprop-1-yn-1-yl)-N-methyl-4-oxo-1,4-dihydro-1,8-naphthyridine-3-carboxamide] | 233 °C | 343
3 | CCn1c(N)c(C(=O)NC)c(=O)c2ccc(C#CC(C)(COC)OC)nc21 (racemic) [Compound 1, (±)-2-Amino-7-(3,4-dimethoxy-3-methylbut-1-yn-1-yl)-1-ethyl-N-methyl-4-oxo-1,4-dihydro-1,8-naphthyridine-3-carboxamide] | 185 to 187 °C | 

Now from value to compound:

Row | melting point | IC50 (VEGFR-3-TK) [nM] | SMILES
4 | 255 °C and 250 °C |  | CCn1c(N)c(C(=O)NC)c(=O)c2ccc(C#CCNC(=O)OC)nc21 [Compound 2, Methyl {3-[7-amino-8-ethyl-6-(methylcarbamoyl)-5-oxo-5,8-dihydro-1,8-naphthyridin-2-yl]prop-2-yn-1-yl}carbamate]
5 |  | 451 | CCn1c(N)c(C(=O)NC)c(=O)c2ccc(C#CC(C)(C)N)nc21 [Compound 4, 2-Amino-7-(3-amino-3-methylbut-1-yn-1-yl)-1-ethyl-N-methyl-4-oxo-1,4-dihydro-1,8-naphthyridine-3-carboxamide hydrochloride]
6 | 293 °C |  | CCn1c(N)c(C(=O)NC)c(=O)c2ccc(C#CC(C)(C)N)nc21 (as salt: hydrochloride) [Compound 4, 2-Amino-7-(3-amino-3-methylbut-1-yn-1-yl)-1-ethyl-N-methyl-4-oxo-1,4-dihydro-1,8-naphthyridine-3-carboxamide hydrochloride]
